Data set [1] can be described thus: Broiler chick body weight after in ovo administration. It is filed as in vivo, broiler chicks. The procedure: (§1) To test this hypothesis, the following study was carried out: Four hundred and sixty eggs were randomly divided into two groups and administered either saline (control) or PYY (600 μg/kg egg weight) into the air cell on day 18 of incubation. At hatching 420 chicks were vent sexed, wing-banded, weighed and randomly placed by treatment and sex into 60 pens of 7 chicks each. Pens were equipped with chick founts, nipple drinkers, and feeders. […] The light cycle was 23 light and 1 dark for the entire experiment.
(§2) Chicks were fed a starter diet (22% CP) for the first 3 weeks and a grower diet (20% CP) for the remaining 3 weeks. Individual chicks were weighed weekly and pen feed consumption recorded as feeders were refilled. At week six, all birds were weighed and euthanized with CO2. Data were statistically analyzed using the General Linear Models Procedure of SAS (1988) with treatment, sex, room and pen as the main effects. Differences were considered significant at P<0.05.
(§3) Weight gain and Feed Conversion Ratio (FCR) were evaluated in broiler chicks treated in ovo with PYY as described in Example 1. Although there were sex differences (P<0.05) for many of the growth and performance parameters, there were no sex x treatment interactions (P<0.05). Therefore, data from both sexes was combined.

Data set [2] can be described thus: Broiler chick Feed Conversion Ratio (FCR) after in ovo administration. The class given is in vivo, broiler chicks. The procedure:
as §1, §2, §3

Data set [3] concerns jejunal glucose transport. As to conditions: cited from earlier work; for glucose absorption: young growing mice, exogenous administration.
For data set [4] the following is noted: in vivo. Here is the method: as §1, §2, §3

Take “PYY: 36 amino acid peptide hormone produced by L type endocrine cells, member of the pancreatic polypeptide family; term covers PYY-I and PYY-II [Peptide YY]”: the “body weights vs saline control (FIG. 1)” value in data set [1] (hatch and week 1 of age, in ovo injection) is reported as “significantly (P<0.05) greater”. Besides, in data set [1] (week 1, 600 μg/kg egg weight into air cell on day 18 of incubation, vs saline), the “body weight, heavier than chicks from control eggs” value was 2.7%. For the same substance, the “broiler weights vs control” value in data set [1] (weeks 3 and 6, data not shown) is recorded as “No statistical differences”. Besides, the “FCR, less than chicks from saline treated eggs” value in data set [2] (one week of age, 600 μg/kg egg weight in ovo) came to 3.99%. Besides, the “FCR vs saline control (FIG. 2)” value in data set [2] (week 1, in ovo injection) was “significantly lower (P<0.05)”. Further, in data set [2] (weeks 3 and 6, data not shown), the FCR vs control entry is recorded as “No differences”. Further, in data set [3] (mice treated with PYY), the “active jejunal glucose transport” value is listed as “increase in active jejunal glucose transport”, the intestinal energy expenditure result is recorded as “without any increase in intestinal energy expenditure” and the passive transport rates entry is reported as “without a corresponding increase in passive transport rates”. Also, the glucose absorption result in data set [3] was “increases glucose absorption”. In data set [4], the Mortality entry is on record as “less than 1%” and the “Mortality, difference between treatments” value is listed as “did not differ significantly between treatments”.

Consider “epidermal growth factor (NSDSECPLSHDGYCLHDGVCMYIEALDKYACNCVVGYIGERCQYRDLKWWELR; Epidermal growth factor; UniProt P01133 971-1023, looked up) [EGF, epidermal growth factor, peptide administered in ovo as comparison treatment]”, for which, in data set [3], the glucose absorption result was “increases glucose absorption”.

Source of the values: patent publication US5916869A, “Method of treating birds in ovo” (North Carolina State University, priority 1997, dated 1999).
